Measured values as given in ChEMBL document CHEMBL3297661, “1-Substituted-5-[(3,5-dinitrobenzyl)sulfanyl]-1H-tetrazoles and their isosteric analogs: A new class of selective antitubercular agents active against drug-susceptible and multidrug-resistant mycobacteria” (Eur J Med Chem, 2014).
Values after ≈ are worked out from the molar mass of the structure shown.

Key:
Assay type in all cases: functional
[1] = test system: Mycobacterium tuberculosis; assay: Antimycobacterial activity against Mycobacterium tuberculosis CNCTC My 331/88 after 14 days by micromethod; conditions: CNCTC My 331/88, 336 h
[2] = test system: Mycobacterium tuberculosis; assay: Antimycobacterial activity against Mycobacterium tuberculosis CNCTC My 331/88 after 21 days by micromethod; conditions: CNCTC My 331/88, 504 h
[3] = test system: Mycobacterium avium; assay: Antimycobacterial activity against Mycobacterium avium CNCTC My 330/88 after 14 days by micromethod; conditions: CNCTC My 330/88, 336 h
[4] = test system: Mycobacterium avium; assay: Antimycobacterial activity against Mycobacterium avium CNCTC My 330/88 after 21 days by micromethod; conditions: CNCTC My 330/88, 504 h
[5] = test system: Mycobacterium kansasii; assay: Antimycobacterial activity against Mycobacterium kansasii CNCTC My 235/80 after 7 days by micromethod; conditions: CNCTC My 235/80, 168 h
[6] = test system: Mycobacterium kansasii; assay: Antimycobacterial activity against Mycobacterium kansasii CNCTC My 235/80 after 14 days by micromethod; conditions: CNCTC My 235/80, 336 h
[7] = test system: Mycobacterium kansasii; assay: Antimycobacterial activity against Mycobacterium kansasii CNCTC My 235/80 after 21 days by micromethod; conditions: CNCTC My 235/80, 504 h
[8] = test system: Mycobacterium kansasii; assay: Antimycobacterial activity against Mycobacterium kansasii 6509/96 after 7 days by micromethod; conditions: 6509/96, 168 h
[9] = test system: Mycobacterium kansasii; assay: Antimycobacterial activity against Mycobacterium kansasii 6509/96 after 14 days by micromethod; conditions: 6509/96, 336 h
[10] = test system: Mycobacterium kansasii; assay: Antimycobacterial activity against Mycobacterium kansasii 6509/96 after 21 days by micromethod; conditions: 6509/96, 504 h

Row | Compound | MIC [1] [µM] | MIC [2] [µM] | MIC [3] [µM] | MIC [4] [µM] | MIC [5] [µM] | MIC [6] [µM] | MIC [7] [µM] | MIC [8] [µM] | MIC [9] [µM] | MIC [10] [µM]
1 | COc1ccccc1-n1nnnc1SCc1cc([N+](=O)[O-])cc([N+](=O)[O-])c1 | 125 (≈ 48.5 µg/mL) | 125 (≈ 48.5 µg/mL) | 125 (≈ 48.5 µg/mL) | 125 (≈ 48.5 µg/mL) | 125 (≈ 48.5 µg/mL) | 125 (≈ 48.5 µg/mL) | 125 (≈ 48.5 µg/mL) | 125 (≈ 48.5 µg/mL) | 125 (≈ 48.5 µg/mL) | 125 (≈ 48.5 µg/mL)
2 | COc1cc(-n2nnnc2SCc2cc([N+](=O)[O-])cc([N+](=O)[O-])c2)cc(OC)c1OC | 16 (≈ 7.17 µg/mL) | 16 (≈ 7.17 µg/mL) | 250 (≈ 112 µg/mL) | 250 (≈ 112 µg/mL) | 16 (≈ 7.17 µg/mL) | 32 (≈ 14.3 µg/mL) | 32 (≈ 14.3 µg/mL) | 16 (≈ 7.17 µg/mL) | 16 (≈ 7.17 µg/mL) | 32 (≈ 14.3 µg/mL)
3 | O=[N+]([O-])c1cc(CSc2nnnn2-c2ccc(F)cc2)cc([N+](=O)[O-])c1 | 2 (≈ 0.753 µg/mL) | 2 (≈ 0.753 µg/mL) | 250 (≈ 94.1 µg/mL) | 250 (≈ 94.1 µg/mL) | 2 (≈ 0.753 µg/mL) | 4 (≈ 1.51 µg/mL) | 4 (≈ 1.51 µg/mL) | 4 (≈ 1.51 µg/mL) | 8 (≈ 3.01 µg/mL) | 16 (≈ 6.02 µg/mL)
4 | O=[N+]([O-])c1cc(CSc2nnnn2-c2cccc(F)c2)cc([N+](=O)[O-])c1 | 16 (≈ 6.02 µg/mL) | 32 (≈ 12 µg/mL) | 250 (≈ 94.1 µg/mL) | 250 (≈ 94.1 µg/mL) | 4 (≈ 1.51 µg/mL) | 4 (≈ 1.51 µg/mL) | 8 (≈ 3.01 µg/mL) | 4 (≈ 1.51 µg/mL) | 8 (≈ 3.01 µg/mL) | 8 (≈ 3.01 µg/mL)
5 | O=[N+]([O-])c1cc(CSc2nnnn2-c2ccc(Cl)cc2)cc([N+](=O)[O-])c1 | 1 (≈ 0.393 µg/mL) | 2 (≈ 0.786 µg/mL) | 125 (≈ 49.1 µg/mL) | 125 (≈ 49.1 µg/mL) | 2 (≈ 0.786 µg/mL) | 4 (≈ 1.57 µg/mL) | 4 (≈ 1.57 µg/mL) | 2 (≈ 0.786 µg/mL) | 4 (≈ 1.57 µg/mL) | 4 (≈ 1.57 µg/mL)
6 | COC(=O)c1cccc(-n2nnnc2SCc2cc([N+](=O)[O-])cc([N+](=O)[O-])c2)c1 | 8 (≈ 3.33 µg/mL) | 16 (≈ 6.66 µg/mL) | 250 (≈ 104 µg/mL) | 250 (≈ 104 µg/mL) | 500 (≈ 208 µg/mL) | 500 (≈ 208 µg/mL) | 500 (≈ 208 µg/mL) | 500 (≈ 208 µg/mL) | 500 (≈ 208 µg/mL) | 500 (≈ 208 µg/mL)
7 | N#CSCc1cc([N+](=O)[O-])cc([N+](=O)[O-])c1 | 4 (≈ 0.957 µg/mL) | 4 (≈ 0.957 µg/mL) | 32 (≈ 7.65 µg/mL) | 62 (≈ 14.8 µg/mL) | 2 (≈ 0.478 µg/mL) | 8 (≈ 1.91 µg/mL) | 16 (≈ 3.83 µg/mL) | 4 (≈ 0.957 µg/mL) | 8 (≈ 1.91 µg/mL) | 16 (≈ 3.83 µg/mL)
8 | O=[N+]([O-])c1ccc(CSc2nnnn2-c2ccccc2)c([N+](=O)[O-])c1 | 8 (≈ 2.87 µg/mL) | 16 (≈ 5.73 µg/mL) | 32 (≈ 11.5 µg/mL) | 62 (≈ 22.2 µg/mL) | 16 (≈ 5.73 µg/mL) | 62 (≈ 22.2 µg/mL) | 62 (≈ 22.2 µg/mL) | 8 (≈ 2.87 µg/mL) | 32 (≈ 11.5 µg/mL) | 32 (≈ 11.5 µg/mL)
9 | O=[N+]([O-])c1ccc(-n2nnnc2SCc2ccccc2)cc1 | 125 (≈ 39.2 µg/mL) | 125 (≈ 39.2 µg/mL) | 62 (≈ 19.4 µg/mL) | 62 (≈ 19.4 µg/mL) | 16 (≈ 5.01 µg/mL) | 32 (≈ 10 µg/mL) | 32 (≈ 10 µg/mL) | 16 (≈ 5.01 µg/mL) | 62 (≈ 19.4 µg/mL) | 62 (≈ 19.4 µg/mL)
10 | CCCCCCn1nnnc1[Se]Cc1cc([N+](=O)[O-])cc([N+](=O)[O-])c1 | 1 (≈ 0.413 µg/mL) | 1 (≈ 0.413 µg/mL) | 16 (≈ 6.61 µg/mL) | 32 (≈ 13.2 µg/mL) | 1 (≈ 0.413 µg/mL) | 2 (≈ 0.827 µg/mL) | 2 (≈ 0.827 µg/mL) | 2 (≈ 0.827 µg/mL) | 4 (≈ 1.65 µg/mL) | 4 (≈ 1.65 µg/mL)
11 | COc1ccc(-n2nnnc2SCc2ccc([N+](=O)[O-])cc2[N+](=O)[O-])cc1 | 8 (≈ 3.11 µg/mL) | 8 (≈ 3.11 µg/mL) | 62 (≈ 24.1 µg/mL) | 62 (≈ 24.1 µg/mL) | 32 (≈ 12.4 µg/mL) | 62 (≈ 24.1 µg/mL) | 62 (≈ 24.1 µg/mL) | 8 (≈ 3.11 µg/mL) | 16 (≈ 6.21 µg/mL) | 32 (≈ 12.4 µg/mL)
12 | O=[N+]([O-])c1cc(COc2nnnn2-c2ccc(Cl)cc2)cc([N+](=O)[O-])c1 | 2 (≈ 0.753 µg/mL) | 4 (≈ 1.51 µg/mL) | 32 (≈ 12.1 µg/mL) | 62 (≈ 23.4 µg/mL) | 8 (≈ 3.01 µg/mL) | 16 (≈ 6.03 µg/mL) | 32 (≈ 12.1 µg/mL) | 8 (≈ 3.01 µg/mL) | 16 (≈ 6.03 µg/mL) | 32 (≈ 12.1 µg/mL)
13 | Cn1nnnc1SCc1cc([N+](=O)[O-])cc([N+](=O)[O-])c1 | 4 (≈ 1.19 µg/mL) | 8 (≈ 2.37 µg/mL) | 500 (≈ 148 µg/mL) | 1000 (≈ 296 µg/mL) | 4 (≈ 1.19 µg/mL) | 16 (≈ 4.74 µg/mL) | 32 (≈ 9.48 µg/mL) | 16 (≈ 4.74 µg/mL) | 32 (≈ 9.48 µg/mL) | 32 (≈ 9.48 µg/mL)
14 | O=[N+]([O-])c1cc(CS(=O)(=O)c2nnnn2-c2ccccc2)cc([N+](=O)[O-])c1 | 8 (≈ 3.12 µg/mL) | 8 (≈ 3.12 µg/mL) | 62 (≈ 24.2 µg/mL) | 125 (≈ 48.8 µg/mL) | 32 (≈ 12.5 µg/mL) | 62 (≈ 24.2 µg/mL) | 62 (≈ 24.2 µg/mL) | 32 (≈ 12.5 µg/mL) | 62 (≈ 24.2 µg/mL) | 62 (≈ 24.2 µg/mL)
15 | NNC(=O)c1ccncc1 [ISONIAZID] | 0.5 (≈ 0.0686 µg/mL) | 1 (≈ 0.137 µg/mL) | > 250 | > 250 | > 250 | > 250 |  | 4 (≈ 0.549 µg/mL) | 4 (≈ 0.549 µg/mL) | 4 (≈ 0.549 µg/mL)
